Data: PubChem BioAssay (NCI)
Values joined by “and” are separate entries in the source; they are usually repeats but may differ in a detail not shown here. Equal entries are not always repeated.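 Briefly, cells in 96-well plates were exposed to five compound concentrations for 48 h, and endpoints were estimated by linear interpolation. GI50 is the concentration that inhibits growth by half. The concentration for full growth arrest is given as TGI.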

Experiments:
Assay in all cases: growth of human tumour cells (NCI), 48 h
[1] = tested on: RXF 393 renal
[2] = tested on: NCI-H522 lung
[3] = tested on: DLD-1 colon
[4] = tested on: LXFL 529 NSCLC
[5] = tested on: SK-MEL-2 melanoma
[6] = tested on: SNB-78 CNS
[7] = tested on: MOLT-4 leukemia
[8] = tested on: A498 renal
[9] = tested on: K-562 leukemia
[10] = tested on: BT-549 breast

Row | SMILES | TGI [1] | TGI [2] | TGI [3] [µM] | TGI [4] | TGI [5] | TGI [6] | TGI [7] | TGI [8] [µM] | TGI [9] | GI50 [1] [µM] | GI50 [2] | GI50 [3] [µM] | GI50 [4] [µM] | GI50 [5] [µM] | GI50 [6] [µM] | GI50 [7] [µM] | GI50 [8] [µM] | GI50 [9] [µM] | GI50 [10] [µM] | TGI [10] [µM]
1 | CC1OC(n2cc(F)c(=O)[nH]c2=O)C=CC1O (stereo not drawn) | > 100 µM | > 100 µM | > 100 | > 100 µM | > 100 µM | > 100 µM | > 100 µM | > 100 | > 100 µM | – | – | – | – | – | – | – | – | – | – | –
2 | CC(=O)O.CC(=O)O.CC(=O)O.CC(=O)O.CC(=O)O.CC(=O)O.O.[Ti].[Ti] | > 100 µM | > 100 µM | > 100 | > 100 µM | > 100 µM | > 100 µM | > 100 µM | > 100 | > 100 µM | > 100 | > 100 µM | > 100 | > 100 | > 100 | > 100 | > 100 | > 100 | > 100 | – | –
3 | COC(=O)C(C(=O)C(=O)Nc1cccc(OC)c1)c1cnc2ccccc2n1 (stereo not drawn) | > 100 µM | > 100 µM | > 100 | > 100 µM | > 100 µM | > 100 µM | > 100 µM | > 100 | > 100 µM | – | – | – | – | – | – | – | – | – | – | –
4 | O=S(O)CCCCSSCC(O)C(O)CSSCCCCS(=O)O (stereo not drawn) | 38 µM and 89.8 µM | 20 µM and 30.4 µM | > 100 | 22.5 µM and 30.5 µM | 37.4 µM and 49.8 µM | 97.7 µM and > 100 µM | 6.69 µM and 9.58 µM | > 100 | 60.6 µM and > 100 µM | – | 6.48 µM and 13 µM | – | – | – | – | – | – | – | – | –
5 | O=c1nc2occc2cn1C1CC(O)C(CO)O1 (stereo not drawn) | > 100 µM | – | > 100 | > 100 µM | – | > 100 µM | > 100 µM | > 100 | > 100 µM | – | – | – | – | – | – | – | – | – | – | –
6 | COC(=O)C1=C(c2ccc3c(c2)OCO3)O[C@H](c2cc(OC)c(OC)c(OC)c2)[C@H]1COC(C)=O | 5.09 µM | – | > 100 | 36.3 µM | > 100 µM | > 100 µM | 27.8 µM | 2.94 | > 100 µM | – | – | – | – | – | – | – | – | – | – | –
7 | CCN(CC)CCOc1ccc(/C=C(\C#N)c2ccc(OCCN(CC)CC)cc2)cc1 | 27.9 µM | 24.9 µM | > 83.3 | 41.3 µM | 39.9 µM | > 87.5 µM | 38.2 µM | 32.2 | 23.5 µM | – | – | – | – | – | – | – | – | – | – | –
8 | O=S(=O)([O-])c1ccc2c(c1)-c1nc-2nc2[n-]c(nc3nc(nc4[n-]c(n1)c1ccc(S(=O)(=O)[O-])cc41)-c1cc(S(=O)(=O)[O-])ccc1-3)c1ccc(S(=O)(=O)[O-])cc21.[Cu+2].[Na+] | > 100 µM | > 100 µM | > 100 | > 100 µM | > 100 µM | > 100 µM | > 100 µM | > 100 | > 50.3 µM | 49.4 | 44.8 µM | 7.65 | 26.5 | > 100 | > 100 | 2.19 | > 100 | 0.749 | 47.4 | > 100
9 | O=C1OC(c2ccccc2)=N/C1=C/C=C/c1ccco1 | > 100 µM | > 100 µM | > 100 | > 100 µM | > 100 µM | > 100 µM | > 100 µM | – | > 100 µM | – | – | – | – | – | – | – | – | – | – | –
10 | COC(=O)C12C3C4C1C1C2C3C41C(=O)OC(C)(C)C (stereo not drawn) | > 100 µM | > 100 µM | > 72.3 | > 100 µM | > 100 µM | > 100 µM | > 100 µM | > 100 | > 100 µM | – | – | – | – | – | – | – | – | – | – | –
11 | S=C(N/N=C/c1ccco1)NC12CC3CC(CC(C3)C1)C2 | > 100 µM | > 100 µM | > 100 | > 100 µM | > 100 µM | > 100 µM | > 100 µM | > 100 | > 100 µM | – | – | – | – | – | – | – | – | – | – | –
12 | C=C(CCCCC)CN1CCCC1[C@@](C)(O)CC(=O)OCC (stereo partly drawn) | > 100 µM | > 100 µM | > 100 | > 100 µM | > 100 µM | > 100 µM | > 100 µM | > 100 | > 100 µM | – | – | – | – | – | – | – | – | – | – | –
13 | O=C1c2ccccc2C(=O)C1(Cl)C1(S(=O)(=O)O)c2ccccc2-c2ccccc21 | > 100 µM | > 100 µM | > 100 | > 100 µM | – | > 100 µM | > 100 µM | > 100 | > 100 µM | – | – | – | – | – | – | – | – | – | – | –
